For 3 compounds, fold change and inhibition results are on record in PubChem BioAssay AID588614 (The Scripps Research Institute Molecular Screening Center, 2011).

Calls of active or inactive are those of the source.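 The calls were made as follows: active = Level of the kinase MAPK1 protein lowered or raised by at least 30% versus solvent-only cells; inactive = change under 30% either way.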

Experiment [1] deals with DLD-1 cells, ERK1/2 western blot, 24 h. Nature of the experiment: total ERK1/2 protein level change, either direction, late-stage follow-up, counter-screen for KLF5 inhibitor project, DLD1 cells, chemiluminescent western blot, powder samples (AID 588614). Conditions: measured here: ERK1/2 band fold change vs DMSO; at 10 µM.
Experiment [2] addresses Mitogen-activated protein kinase 1 (Homo sapiens) (UniProt P28482). The description is as above. Conditions: DLD-1 cells, ERK1/2 western blot, 24 h; at 10 µM; stronger effect = higher value.

Mitogen-activated protein kinase 1 (Homo sapiens), sequence (P28482 whole entry, looked up): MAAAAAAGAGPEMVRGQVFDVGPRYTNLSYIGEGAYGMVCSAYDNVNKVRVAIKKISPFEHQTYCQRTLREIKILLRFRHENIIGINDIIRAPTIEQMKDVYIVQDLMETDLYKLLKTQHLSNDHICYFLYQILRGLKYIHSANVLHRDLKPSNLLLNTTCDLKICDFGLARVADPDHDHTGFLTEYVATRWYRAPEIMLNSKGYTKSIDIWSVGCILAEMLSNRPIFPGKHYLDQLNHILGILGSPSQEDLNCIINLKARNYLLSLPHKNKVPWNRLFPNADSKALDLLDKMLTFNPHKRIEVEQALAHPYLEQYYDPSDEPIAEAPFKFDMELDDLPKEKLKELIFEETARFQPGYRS

Take `CN(C(=O)CNC(=O)/C=C/c1cccc(Cl)c1)C1CCS(=O)(=O)C1` (stereo unspecified): the fold change in experiment [1] is -1.26. The inhibition in experiment [2] was 20.8% (inactive).

`CN(C(=O)CNC(=O)/C=C/c1cccc(Cl)c1)C1CCS(=O)(=O)CC1`: in experiment [1], the fold change was -1.27. The inhibition in experiment [2] is 21.5% (inactive).

As to `CN(C(=O)COC(=O)/C=C/c1cccc([N+](=O)[O-])c1)C1CCS(=O)(=O)C1` (stereo unspecified), in experiment [1], the fold change was -1.25. Moreover, in experiment [2], the inhibition is 19.8% (inactive).
